According to patent US10828316B2, “Method of treating bacterial infections” (priority 2016, dated 2020):
In brackets after ≈: the same amount, converted by molar mass. Like-named read-outs stand apart in the source and are kept apart here.

Legend:
K. pneumoniae EN0262 = experiment: MIC; assay type: cell-based; conditions: in FdUrd+trimethoprim+uridine combination
P. aeruginosa EN0460 = experiment: MIC; assay type: cell-based, Pseudomonas aeruginosa; conditions: in FdUrd+trimethoprim+uridine combination
A. baumannii EN007 = experiment: MIC; assay type: cell-based, Acinetobacter baumannii; conditions: in FdUrd+trimethoprim+uridine combination
Citrobacter sp. EN0465 = experiment: MIC; assay type: cell-based; conditions: in FdUrd+trimethoprim+uridine combination
K. pneumoniae EN0143 = experiment: MIC; assay type: cell-based; conditions: in FdUrd+trimethoprim+uridine combination
E. coli EN0138 = experiment: MIC; assay type: cell-based; conditions: in FdUrd+trimethoprim+uridine combination
K. pneumoniae EN0249 = experiment: MIC; assay type: cell-based; conditions: in FdUrd+trimethoprim+uridine combination
K. pneumoniae EN0245 = experiment: MIC; assay type: cell-based; conditions: in FdUrd+trimethoprim+uridine combination
P. aeruginosa EN005 = experiment: MIC; assay type: cell-based, Pseudomonas aeruginosa; conditions: in FdUrd+trimethoprim+uridine combination
P. aeruginosa EN004 = experiment: MIC; assay type: cell-based, Pseudomonas aeruginosa; conditions: in FdUrd+trimethoprim+uridine combination
E. coli EN0136 = experiment: MIC; assay type: cell-based; conditions: in FdUrd+trimethoprim+uridine combination
P. mirabilis EN0457 = experiment: MIC; assay type: cell-based, Proteus mirabilis; conditions: in FdUrd+trimethoprim+uridine combination
P. aeruginosa EN0459 = experiment: MIC; assay type: cell-based, Pseudomonas aeruginosa; conditions: in FdUrd+trimethoprim+uridine combination
S. marescens EN0454 = experiment: MIC; assay type: cell-based, Serratia marescens; conditions: in FdUrd+trimethoprim+uridine combination
E. coli EN0135 = experiment: MIC; assay type: cell-based; conditions: in FdUrd+trimethoprim+uridine combination
K. pneumoniae EN0144 = experiment: MIC; assay type: cell-based; conditions: in FdUrd+trimethoprim+uridine combination
E. coli EN0134 = experiment: MIC; assay type: cell-based; conditions: in FdUrd+trimethoprim+uridine combination
E. coli EN0139 = experiment: MIC; assay type: cell-based; conditions: in FdUrd+trimethoprim+uridine combination
P. aeruginosa EN014 = experiment: MIC; assay type: cell-based, Pseudomonas aeruginosa; conditions: in FdUrd+trimethoprim+uridine combination
[1] = test system: A. pittii or A. nosocomialis EN0180; experiment: MIC; assay type: cell-based, Acinetobacter pittii or nosocomialis; conditions: in FdUrd+trimethoprim+uridine combination
K. pneumoniae EN0437 = experiment: MIC; assay type: cell-based; conditions: in FdUrd+trimethoprim+uridine combination
E. coli EN0235 = assay type: cell-based
S. aureus EN008 = experiment: MIC; assay type: cell-based, Staphylococcus aureus; conditions: in FdUrd+trimethoprim+uridine combination
S. aureus strain no 13 = experiment: MIC; conditions: Staphylococcus aureus, NO13, read-out: MIC of trimethoprim only
E. coli strain no 2 = experiment: MIC; conditions: Escherichia coli

O=c1[nH]c(=O)n([C@H]2C[C@H](O)[C@@H](CO)O2)cc1F [FdUrd]
MIC (K. pneumoniae EN0262): 2 µg/mL | MIC (P. aeruginosa EN0460): >4 µg/mL | MIC (A. baumannii EN007): >4 µg/mL | MIC (Citrobacter sp. EN0465): >4 µg/mL | MIC (K. pneumoniae EN0143): >4 µg/mL | MIC (E. coli EN0138): 0.25 µg/mL | MIC (K. pneumoniae EN0249): >4 µg/mL | MIC (K. pneumoniae EN0245): >4 µg/mL | MIC (P. aeruginosa EN005): 0.25 µg/mL | MIC (P. aeruginosa EN004): >4 µg/mL | MIC (E. coli EN0136): 1 µg/mL | MIC (P. mirabilis EN0457): 1 µg/mL | MIC (P. aeruginosa EN0459): >4 µg/mL | MIC (S. marescens EN0454): >4 µg/mL | MIC (E. coli EN0135): 0.25 µg/mL | MIC (K. pneumoniae EN0144): >4 µg/mL | MIC (E. coli EN0134): >4 µg/mL | MIC (E. coli EN0139): 0.5 µg/mL | MIC (P. aeruginosa EN014): >4 µg/mL | MIC [1]: 4 µg/mL | MIC (K. pneumoniae EN0437): >4 µg/mL | MIC (E. coli EN0235): 0.06 µg/mL (≈ 0.244 µM) | MIC (S. aureus EN008): <0.008 µg/mL

COc1cc(Cc2cnc(N)nc2N)cc(OC)c1OC [Trimethoprim, trimethoprim]
MIC (S. aureus strain no 13): < 32 µg/mL | score at sampling (E. coli; Trimethoprim 30 mg/kg, single mice): 1 | inhibition in mice infected with E. coli (E. coli; murine peritonitis model): slight inhibition | MIC (E. coli strain no 2; NO2, E. coli strain 2, 5 uM thymidine, uridine 0 μg/ml): 5 to 10 µg/mL (≈ 17.2 to 34.4 µM) | MIC (E. coli strain no 2; NO2, E. coli strain 2, 5 uM thymidine, uridine 10 μg/ml): 2.5 to 5 µg/mL (≈ 8.61 to 17.2 µM) | MIC (E. coli strain no 2; NO2, E. coli strain 2, 5 uM thymidine, uridine 100 μg/ml): 2.5 to 5 µg/mL (≈ 8.61 to 17.2 µM) | MIC (E. coli strain no 2; NO2, read-out: MIC of trimethoprim only, E. coli strain no 2): 8 to 16 µg/mL
